These results are taken from ChEMBL document CHEMBL4673352, “Discovery of AZD4573, a Potent and Selective Inhibitor of CDK9 That Enables Short Duration of Target Engagement for the Treatment of Hematological Malignancies” (J Med Chem, 2020).

The inhibition is the relative decrease from the control value, in per cent. As usually defined, the Kd is the constant that tells how readily two partners part at equilibrium. As a reminder, the half-life is how long it takes for the measured level to halve. As a reminder, the IC50 is the concentration at which inhibition is half-maximal.

Activity calls are given as the source filed them. No cut-off for these calls is given here.

Series [1] in a line: Volume of distribution at steady state in Beagle dog at […], iv administered over 0.25 hrs formulated as solution in DMSO/Captisol. Conditions: in vivo, dose 0.24 µmol/kg, read-out: Vdss. The series is classed as ADME, organism-based, Canis lupus familiaris.
For series [2], the target named is CDK9/cyclin T1 (Homo sapiens, UniProt O60563+P50750). Nature of the series: Binding affinity to human CDK9/CyclinT assessed as dissociation rate constant by surface plasmon resonance analysis. The series is classed as protein-complex assay. For orientation: Surface plasmon resonance follows binding to a sensor surface in real time, without labels.
CDK9/cyclin T1 (Homo sapiens, UniProt O60563+P50750), sequence (O60563 whole entry, the tested form may be a part): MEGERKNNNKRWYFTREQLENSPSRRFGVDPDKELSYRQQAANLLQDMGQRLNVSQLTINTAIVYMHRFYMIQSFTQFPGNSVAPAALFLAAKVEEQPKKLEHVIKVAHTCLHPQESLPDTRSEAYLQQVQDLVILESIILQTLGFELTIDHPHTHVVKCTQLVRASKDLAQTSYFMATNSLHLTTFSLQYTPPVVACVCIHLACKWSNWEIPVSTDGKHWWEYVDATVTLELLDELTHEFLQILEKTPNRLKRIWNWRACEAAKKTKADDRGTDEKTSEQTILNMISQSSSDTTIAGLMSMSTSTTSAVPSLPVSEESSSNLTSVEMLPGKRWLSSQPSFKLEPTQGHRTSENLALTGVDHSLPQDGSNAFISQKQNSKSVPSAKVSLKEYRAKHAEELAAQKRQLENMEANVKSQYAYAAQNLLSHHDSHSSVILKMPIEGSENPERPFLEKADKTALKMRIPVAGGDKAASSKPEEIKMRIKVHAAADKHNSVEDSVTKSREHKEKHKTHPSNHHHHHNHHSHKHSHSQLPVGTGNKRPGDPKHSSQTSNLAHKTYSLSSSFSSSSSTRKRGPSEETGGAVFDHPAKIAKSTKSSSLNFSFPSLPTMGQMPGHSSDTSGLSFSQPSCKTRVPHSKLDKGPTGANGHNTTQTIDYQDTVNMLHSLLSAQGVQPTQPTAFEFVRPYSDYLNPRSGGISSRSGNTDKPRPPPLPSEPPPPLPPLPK
CDK9/cyclin T1 (Homo sapiens, UniProt O60563+P50750), sequence (P50750 whole entry, the tested form may be a part): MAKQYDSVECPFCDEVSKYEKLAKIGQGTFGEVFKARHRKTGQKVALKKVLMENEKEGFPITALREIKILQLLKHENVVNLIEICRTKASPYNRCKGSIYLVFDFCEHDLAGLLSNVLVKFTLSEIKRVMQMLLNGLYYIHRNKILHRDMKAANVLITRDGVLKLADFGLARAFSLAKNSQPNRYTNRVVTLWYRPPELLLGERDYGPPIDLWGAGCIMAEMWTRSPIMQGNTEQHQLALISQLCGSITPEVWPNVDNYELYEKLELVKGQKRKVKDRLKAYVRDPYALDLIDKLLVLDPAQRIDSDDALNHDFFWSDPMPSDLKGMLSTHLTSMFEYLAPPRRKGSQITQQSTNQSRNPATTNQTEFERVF
The species named for series [3] is Homo sapiens. Nature of the series: Selectivity ratio of IC50 for CDK5 (unknown origin) in presence of 5 mM ATP to IC50 for Inhibition of recombinant full length human N-terminal GST-fused CDK9 (1 to 372 residues)/His-tagged CyclinT1 (1 to 726 residues) expressed in baculovirus infected insect cells.
Series [4] can be described thus: Drug metabolism in human hepatocytes assessed as 3-(4-(2-((1S,3R)-3-acetamidocyclohexanecarboxamido)-5-fluoropyridin-4-yl)-1H-pyrazol-5-yl)-2,2-dimethylpropanoic acid metabolite formation. The series is classed as ADME, cell-based, Hepatocyte.
Series [5] deals with Cyclin-dependent kinase 7/ cyclin H (Homo sapiens) (UniProt P51946+P50613). Nature of the series: Inhibition of human recombinant full-length CDK7/CyclinH using peptide as substrate incubated for 40 mins in presence of [gamma-33P]ATP at 1 uM by scintillation counting method relative to control. The series is classed as protein-complex assay.
The species named for series [6] is Homo sapiens. Nature of the series: Selectivity ratio of IC50 for CDK3 (unknown origin) in presence of 5 mM ATP to IC50 for Inhibition of recombinant full length human N-terminal GST-fused CDK9 (1 to 372 residues)/His-tagged CyclinT1 (1 to 726 residues) expressed in baculovirus infected insect cells.
Series [7] has as its target CDK9/cyclin T1 (Homo sapiens, UniProt P50750). Nature of the series: Binding affinity to human CDK9/CyclinT assessed as equilibrium dissociation constant by surface plasmon resonance analysis. The series is classed as protein-complex assay.
The target in series [8] is Mitogen-activated protein kinase kinase kinase 9 (Homo sapiens) (UniProt P80192). Nature of the series: Inhibition of human recombinant MAP3K9 using casein as substrate at 1 uM incubated for 40 mins in presence of [gamma32P]-ATP by scintillation counting method relative to control.
Mitogen-activated protein kinase kinase kinase 9 (Homo sapiens), sequence (P80192 whole entry, looked up): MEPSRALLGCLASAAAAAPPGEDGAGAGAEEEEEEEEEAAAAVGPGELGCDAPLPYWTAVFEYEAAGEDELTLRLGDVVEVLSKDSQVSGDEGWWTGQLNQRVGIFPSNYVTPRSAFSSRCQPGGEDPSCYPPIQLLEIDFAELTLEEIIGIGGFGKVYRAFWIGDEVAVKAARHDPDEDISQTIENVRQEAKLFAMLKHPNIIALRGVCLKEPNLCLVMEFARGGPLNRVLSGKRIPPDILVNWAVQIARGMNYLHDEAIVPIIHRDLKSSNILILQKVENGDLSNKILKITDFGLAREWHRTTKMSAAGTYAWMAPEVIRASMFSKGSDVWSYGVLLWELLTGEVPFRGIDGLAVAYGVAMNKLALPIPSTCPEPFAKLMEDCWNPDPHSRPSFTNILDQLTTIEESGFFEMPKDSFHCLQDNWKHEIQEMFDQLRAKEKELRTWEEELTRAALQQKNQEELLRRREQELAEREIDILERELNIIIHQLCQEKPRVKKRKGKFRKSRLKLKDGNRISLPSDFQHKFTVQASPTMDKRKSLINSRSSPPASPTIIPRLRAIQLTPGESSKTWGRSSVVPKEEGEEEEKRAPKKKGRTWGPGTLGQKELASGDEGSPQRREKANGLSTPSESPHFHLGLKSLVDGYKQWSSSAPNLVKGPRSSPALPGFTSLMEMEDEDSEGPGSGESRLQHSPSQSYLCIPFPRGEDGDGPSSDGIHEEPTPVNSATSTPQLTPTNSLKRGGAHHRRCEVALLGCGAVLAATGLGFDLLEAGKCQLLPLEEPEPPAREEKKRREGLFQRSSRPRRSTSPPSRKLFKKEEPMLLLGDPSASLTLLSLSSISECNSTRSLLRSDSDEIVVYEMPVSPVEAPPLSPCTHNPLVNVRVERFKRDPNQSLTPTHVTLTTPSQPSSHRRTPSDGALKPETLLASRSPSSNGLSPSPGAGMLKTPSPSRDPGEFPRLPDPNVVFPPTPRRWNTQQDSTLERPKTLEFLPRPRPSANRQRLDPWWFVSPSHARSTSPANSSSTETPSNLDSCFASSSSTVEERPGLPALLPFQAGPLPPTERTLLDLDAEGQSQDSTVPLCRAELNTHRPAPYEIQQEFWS
For series [9], the system named is NOMO-1. Nature of the series: Antitumor activity against human NOMO1 cells xenografted in CB17 SCID mouse assessed as cell death at 5 mg/kg, ip BID administered at 2 hrs dosing interval with 2 days on and 5 days off dosing schedule. The series is classed as functional, organism-based.
In series [10] the target is Insulin receptor (Homo sapiens) (UniProt P06213). Nature of the series: Inhibition of human recombinant INSR using KKKSPGEYVNIEF as substrate at 1 uM incubated for 40 mins in presence of [gamma32P]-ATP by scintillation counting method relative to control.
Series [11] can be described thus: Drug metabolism in human hepatocytes assessed as (1S,3R)-3-acetamido-N-(5-chloro-4-(5-(3-hydroxy-2,2-dimethylpropyl)-1H-pyrazol-4-yl)pyridin-2-yl)cyclohexanecarboxamide metabolite formation. The series is classed as ADME, cell-based, Hepatocyte.
Series [12] can be described thus: Drug metabolism in human liver microsomes assessed as3-(4-(2-((1S,3R)-3-acetamidocyclohexanecarboxamido)-5-chloropyridin-4-yl)-1H-pyrazol-5-yl)-2,2-dimethylpropanoic acid formation at 10 uM measured after 1 hr in presence of NADPH by LC-UV-MS analysis. It is filed as ADME, Microsome. On the technique in general: Liver microsomes are a subcellular fraction often used to study metabolism.

Series [13] can be described thus: Half-life in mouse at 2.3 umol/kg, iv formulated as solution. It is filed as ADME, organism-based. The conditions noted are these: in vivo, dose 2.3 µmol/kg.
In series [14] the target is Cyclin-dependent kinase 9 (Mus musculus) (UniProt Q99J95). Nature of the series: In-vivo inhibition of CDK9 in CB17 SCID mouse xenografted with human NOMO1 cells assessed as reduction in RNA Polymerase 2 CTD phosphorylation at Ser2 residues administered intraperitoneally twice at 2 hrs dosing interval with 2 days on and 5 days off dosing schedule by Western blot analysis. It is filed as functional. Conditions: dose 5-15 mg/kg. (In xenograft studies the graft and the host belong to different species.)
Cyclin-dependent kinase 9 (Mus musculus), sequence (Q99J95 whole entry): as the sequence (P50750 whole entry, the tested form may be a part) above, with S17T, R37K, K40Q, N258K, Y262F counted along it

A short description of series [15]: Intrinsic clearance in monkey cryopreserved hepatocytes assessed per million cells […]. Conditions: rhesus monkey, read-out: CLH. The series is classed as ADME, cell-based, Macaca mulatta, Hepatocyte.
The target of series [16] is T1, Mitogen-activated protein kinase 8 (Homo sapiens, UniProt P45983). Nature of the series: Inhibition of human recombinant His-tagged JNK1 expressed in baculovirus expression system at 0.1 uM incubated for 60 mins by TR-FRET based LanthaScreen Eu kinase binding assay relative to control.
T1 sequence (P45983 whole entry, the tested form may be a part): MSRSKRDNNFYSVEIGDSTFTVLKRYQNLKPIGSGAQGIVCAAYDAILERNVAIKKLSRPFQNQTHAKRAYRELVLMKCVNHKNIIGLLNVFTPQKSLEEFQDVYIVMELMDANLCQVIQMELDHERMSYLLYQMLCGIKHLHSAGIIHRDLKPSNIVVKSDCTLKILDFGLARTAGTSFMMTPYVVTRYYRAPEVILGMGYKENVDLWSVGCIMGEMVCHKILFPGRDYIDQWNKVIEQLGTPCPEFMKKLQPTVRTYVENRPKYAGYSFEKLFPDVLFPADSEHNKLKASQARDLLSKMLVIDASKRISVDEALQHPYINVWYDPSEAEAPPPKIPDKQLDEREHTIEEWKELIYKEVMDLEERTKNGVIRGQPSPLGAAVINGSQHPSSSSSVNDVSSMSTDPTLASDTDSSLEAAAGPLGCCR
For series [17], the target named is Mitogen-activated protein kinase kinase kinase kinase 4 (Homo sapiens) (UniProt O95819). Nature of the series: Inhibition of recombinant human GST-tagged MAP4K4 catalytic domain expressed in baculovirus expression system at 1 uM by Lanthascreen assay relative to control. Conditions: time 60.0 min.
Mitogen-activated protein kinase kinase kinase kinase 4 (Homo sapiens), sequence (O95819 2-1239 limits assumed): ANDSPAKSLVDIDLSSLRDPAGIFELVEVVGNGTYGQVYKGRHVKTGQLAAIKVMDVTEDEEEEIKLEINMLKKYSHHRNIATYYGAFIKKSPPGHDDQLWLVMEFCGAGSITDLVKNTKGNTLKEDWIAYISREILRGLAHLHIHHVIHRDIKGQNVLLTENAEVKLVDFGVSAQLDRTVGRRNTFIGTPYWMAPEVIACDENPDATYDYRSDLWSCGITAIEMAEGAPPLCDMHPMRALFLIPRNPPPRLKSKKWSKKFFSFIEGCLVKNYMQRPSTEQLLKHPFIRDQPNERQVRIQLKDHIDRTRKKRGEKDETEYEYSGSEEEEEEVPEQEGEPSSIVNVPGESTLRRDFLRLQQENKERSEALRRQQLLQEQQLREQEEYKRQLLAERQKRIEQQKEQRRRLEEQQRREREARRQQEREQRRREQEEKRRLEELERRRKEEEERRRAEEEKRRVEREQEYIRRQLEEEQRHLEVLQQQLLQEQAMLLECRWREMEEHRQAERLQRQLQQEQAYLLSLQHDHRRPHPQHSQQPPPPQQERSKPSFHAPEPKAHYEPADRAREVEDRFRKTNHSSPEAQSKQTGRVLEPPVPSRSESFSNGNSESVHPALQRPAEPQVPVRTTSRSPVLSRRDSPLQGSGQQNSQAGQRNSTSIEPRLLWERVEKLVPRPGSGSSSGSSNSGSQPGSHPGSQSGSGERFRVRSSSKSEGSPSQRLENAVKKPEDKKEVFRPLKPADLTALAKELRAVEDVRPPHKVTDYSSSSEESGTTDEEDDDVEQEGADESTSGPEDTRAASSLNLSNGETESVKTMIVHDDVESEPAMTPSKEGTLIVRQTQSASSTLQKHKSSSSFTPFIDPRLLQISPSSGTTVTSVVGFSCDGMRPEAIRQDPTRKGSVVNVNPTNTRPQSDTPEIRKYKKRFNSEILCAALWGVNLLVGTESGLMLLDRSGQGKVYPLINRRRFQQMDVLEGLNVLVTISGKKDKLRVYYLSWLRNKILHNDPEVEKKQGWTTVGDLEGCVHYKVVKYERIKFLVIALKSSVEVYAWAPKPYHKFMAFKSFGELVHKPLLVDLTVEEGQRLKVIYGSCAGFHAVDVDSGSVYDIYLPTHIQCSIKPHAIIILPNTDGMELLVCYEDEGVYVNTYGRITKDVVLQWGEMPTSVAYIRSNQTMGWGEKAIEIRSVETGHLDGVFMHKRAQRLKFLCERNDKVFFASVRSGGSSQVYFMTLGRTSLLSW
For series [18], the target named is Casein kinase I isoform gamma-2 (Homo sapiens, UniProt P78368). Nature of the series: Inhibition of CK1gamma2 (unknown origin) in presence of 5 mM ATP.
Series [19] can be described thus: Drug metabolism in human liver microsomes assessed as (1S,3R)-3-acetamido-N-(5-chloro-4-(5-(3-hydroxy-2,2-dimethylpropyl)-1H-pyrazol-4-yl)pyridin-2-yl)cyclohexanecarboxamide formation at 10 uM measured after 1 hr in presence of NADPH by LC-UV-MS analysis. It is filed as ADME, Microsome.
The target of series [20] is Dual specificity tyrosine-phosphorylation-regulated kinase 1A (Homo sapiens) (UniProt Q13627). Nature of the series: Inhibition of human recombinant full length GST-tagged DYRK1A expressed in baculovirus infected cells at 0.1 uM incubated for 60 mins by TR-FRET based LanthaScreen Eu kinase binding assay relative to control.
Series [21] deals with Dual specificity tyrosine-phosphorylation-regulated kinase 2 (Homo sapiens, UniProt Q92630). Nature of the series: Inhibition of DYRK2 (unknown origin) in presence of 5 mM ATP.
The target of series [22] is Mitogen-activated protein kinase 15 (Homo sapiens) (UniProt Q8TD08). Nature of the series: Inhibition of human recombinant N-terminal FLAG-tagged ERK7 expressed in Sf9 insect cells at 0.1 uM incubated for 60 mins by TR-FRET based LanthaScreen Eu kinase binding assay relative to control.
Mitogen-activated protein kinase 15 (Homo sapiens), sequence (Q8TD08 whole entry): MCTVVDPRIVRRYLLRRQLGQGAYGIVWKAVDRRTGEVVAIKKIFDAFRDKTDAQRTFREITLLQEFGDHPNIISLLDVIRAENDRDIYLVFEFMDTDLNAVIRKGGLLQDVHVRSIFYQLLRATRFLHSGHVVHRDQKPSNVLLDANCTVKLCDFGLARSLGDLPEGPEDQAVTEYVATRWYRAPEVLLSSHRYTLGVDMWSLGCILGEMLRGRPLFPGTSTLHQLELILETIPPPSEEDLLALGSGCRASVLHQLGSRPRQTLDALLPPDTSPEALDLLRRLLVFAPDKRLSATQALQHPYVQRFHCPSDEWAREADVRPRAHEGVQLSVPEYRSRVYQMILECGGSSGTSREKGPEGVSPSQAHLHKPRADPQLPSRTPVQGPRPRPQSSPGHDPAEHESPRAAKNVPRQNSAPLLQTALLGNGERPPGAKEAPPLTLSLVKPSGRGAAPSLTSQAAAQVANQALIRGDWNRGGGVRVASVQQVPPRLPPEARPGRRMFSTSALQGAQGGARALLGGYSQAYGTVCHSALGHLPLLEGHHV
Series [23] addresses T1, Mitogen-activated protein kinase 8. Nature of the series: Inhibition of JNK1 (unknown origin) in presence of 5 mM ATP.
Series [24] deals with NOMO-1. Nature of the series: Antitumor activity against human NOMO1 cells xenografted in CB17 SCID mouse assessed as tumor regression at 15 mg/kg, ip BID administered at 2 hrs dosing interval with 2 days on and 5 days off dosing schedule measured 12 days post initial dose. The series is classed as functional. Conditions: time 12 day.
A further series deals with MV4-11. Nature of the series: Antitumor activity against human MV4-11 cells xenografted in ip dosed CB17 SCID mouse assessed as cell death administered twice daily at 2 hrs dose interval with 2 days on and 5 days off dosing schedule. It is filed as functional, organism-based.
The target in series [25] is Cyclin-dependent kinase 9 (Mus musculus) (UniProt Q99J95). Nature of the series: In-vivo inhibition of CDK9 in mouse xenografted with human MV4-11 cells assessed as reduction in RNA Polymerase 2 CTD phosphorylation at Ser2 residues at 5 to 15 mg/kg, ip BID administered at 2 hrs dose interval with 2 days on and 5 days off dosing schedule by Western blot analysis. It is filed as functional, organism-based. The conditions noted are these: dose 5-15 mg/kg.

A short description of series [26]: Drug metabolism in human hepatocytes assessed 3-(4-(2-((1S,3R)-3-acetamidocyclohexanecarboxamido)-5-chloropyridin-4-yl)-1H-pyrazol-5-yl)-2,2-dimethylpropanoic acid metabolite formation. The series is classed as ADME, cell-based, Hepatocyte.
In series [27] the target is Glycogen synthase kinase-3 alpha (Homo sapiens, UniProt P49840). Nature of the series: Inhibition of kinase tracer 236 binding to N-terminal GST-tagged human full length GSK3alpha expressed in baculovirus expression system by Lanthascreen Eu kinase binding assay. Conditions: dose 0.1 µM, time 60.0 min.

As for `CC(=O)N[C@@H]1CCC[C@H](C(=O)Nc2cc(-c3cnn4c3CC(C)(C)C4)c(F)cn2)C1`, the Vd at 0.25 h in [1] was 1.2 L/kg. On CDK9/cyclin T1 [2], the koff is 569 10^-6/s. The figures for the Ratio IC50 in the series listed under Homo sapiens [3] and in the series listed under Homo sapiens [6] were 16 and 5, respectively. For the same molecule, the Drug metabolism result in series [4] is listed as “Metabolite_Detected”. Further, the inhibition in series [5] worked out at 92%. In addition, the equilibrium dissociation constant (Kd) at CDK9/cyclin T1 [7] was found to be 0.000123 µM.
As for `CC(=O)N[C@@H]1CCC[C@H](C(=O)Nc2cc(-c3cnn4c3CC(C)(C)C4)c(Cl)cn2)C1` [ZEMIRCICLIB], the inhibition in [8] was 82%; in series [10], 83%; in series [14], “Dose-dependent effect”; in series [16], 84%; in [17] it was 85%; in series [20], 80%. Besides, the figures for the inhibition in [22] and in series [27] were 83% and 96%, respectively. In addition, in the series on NOMO-1 [9], the outcome was Active. The Drug metabolism entry in [11], in series [12], in series [19] and in series [26] was “Metabolite_Detected” each time. The half-life in [13] was 10.8 min. The hepatocyte CLint in series [15] worked out at 32 µL/min/1e6 cells. In addition, the values for the IC50 in series [18], in [21] and in series [23] were 6.66 µM, 8.62 µM and 2.8 µM, respectively. The results for the Activity in the series with NOMO-1 [24] and in the series with MV4-11 were 65% and “Dose-dependent effect”, respectively. For the same molecule, the inhibition result in [25] is “Active”.
